BindingDB's records for doi:10.1016/S0960-894X(01)00040-3 (Glaxosmithkline, 2001)

molecular target: Tyrosine--tRNA ligase (Staphylococcus aureus); assay: Inhibitory activity against Staphylococcus aureus tyrosyl tRNA synthetase (YRS) using aminoacylation assay

IC50	Structure (SMILES)
3.6 nM	CCCCOC(=O)C(NC(=O)[C@@H](N)Cc1ccc(O)cc1)[C@H]1C[C@@H](O)[C@@H](O)[C@@H](C)O1 (stereo partly drawn) [[2-Amino-3-((S)-4-hydroxy-phenyl)-propionylamino]-((2R,4R,5R,6R)-4,5-dihydroxy-6-methyl-tetrahydro-pyran-2-yl)-acetic acid butyl ester]
190 nM	N[C@@H](Cc1ccc(O)cc1)C(=O)NC(C(=O)O)[C@@H]1O[C@H](CO)[C@H](O)[C@H](O)[C@H]1O (stereo partly drawn) [[2-Amino-3-((S)-4-hydroxy-phenyl)-propionylamino]-((2S,3R,4R,5R,6R)-3,4,5-trihydroxy-6-hydroxymethyl-tetrahydro-pyran-2-yl)-acetic acid]
0.8 nM	CCCCOC(=O)[C@@H](NC(=O)[C@@H](N)Cc1ccc(O)cc1)[C@@H]1O[C@H](C)[C@H](O)[C@H](O)[C@H]1O [[2-Amino-3-((S)-4-hydroxy-phenyl)-propionylamino]-((2S,3R,4S,5R,6R)-3,4,5-trihydroxy-6-methyl-tetrahydro-pyran-2-yl)-acetic acid (S)-butyl ester]
